Inhibition in vivo and IC50 data for 12 molecules are collected here from ChEMBL document CHEMBL1129882, “Beta-amino acid derivatives as orally active non-peptide fibrinogen receptor antagonists” (Bioorg Med Chem Lett, 1997).

Experiment [1] deals with Cavia porcellus. The experiment is described as follows: Ex vivo platelet aggregation of compound was measured in guinea pig up to 5 hr after intraduodenal dose of 1 mg/kg. Format: functional.
Experiment [2] deals with Cavia porcellus. The experiment can be described thus: Ex vivo platelet aggregation of compound was measured in guinea pig up to 5 hr after intraduodenal dose of 3 mg/kg. It is filed as functional.
The next experiment is filed under the species Homo sapiens. The experiment can be described thus: Tested in vitro for the inhibition of ADP-induced aggregation of human blood platelets. It is filed as functional.
In experiment [3] the target is T1, Integrin alpha-IIb/beta-3 (Homo sapiens, UniProt P05106+P08514). The experiment is described as follows: Inhibition of fibrinogen binding to immobilized human glycoprotein alpha IIb beta-3 integrin. It is filed as protein-complex assay.
T1 sequence (P05106 27-788 limits assumed): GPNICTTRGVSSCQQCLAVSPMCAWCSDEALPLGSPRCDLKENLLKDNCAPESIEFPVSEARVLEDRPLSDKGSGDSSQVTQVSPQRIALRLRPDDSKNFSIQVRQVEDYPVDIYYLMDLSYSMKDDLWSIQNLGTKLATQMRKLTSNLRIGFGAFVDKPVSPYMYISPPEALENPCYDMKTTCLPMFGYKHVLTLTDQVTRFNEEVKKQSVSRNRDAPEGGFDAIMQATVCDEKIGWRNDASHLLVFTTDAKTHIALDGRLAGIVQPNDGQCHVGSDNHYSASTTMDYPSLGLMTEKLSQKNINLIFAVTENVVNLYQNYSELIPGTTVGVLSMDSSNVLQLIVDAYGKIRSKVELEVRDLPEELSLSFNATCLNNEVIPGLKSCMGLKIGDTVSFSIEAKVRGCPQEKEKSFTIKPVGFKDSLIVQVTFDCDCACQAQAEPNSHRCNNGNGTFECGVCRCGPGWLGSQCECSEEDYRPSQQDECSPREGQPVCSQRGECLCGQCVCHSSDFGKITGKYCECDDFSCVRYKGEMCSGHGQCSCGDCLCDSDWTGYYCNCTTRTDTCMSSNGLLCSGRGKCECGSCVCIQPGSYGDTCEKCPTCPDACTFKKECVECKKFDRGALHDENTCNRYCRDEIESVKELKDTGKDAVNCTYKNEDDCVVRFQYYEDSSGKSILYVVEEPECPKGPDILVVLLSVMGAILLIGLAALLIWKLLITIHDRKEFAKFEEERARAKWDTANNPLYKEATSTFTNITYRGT
T1 sequence (P08514 32-887 limits assumed): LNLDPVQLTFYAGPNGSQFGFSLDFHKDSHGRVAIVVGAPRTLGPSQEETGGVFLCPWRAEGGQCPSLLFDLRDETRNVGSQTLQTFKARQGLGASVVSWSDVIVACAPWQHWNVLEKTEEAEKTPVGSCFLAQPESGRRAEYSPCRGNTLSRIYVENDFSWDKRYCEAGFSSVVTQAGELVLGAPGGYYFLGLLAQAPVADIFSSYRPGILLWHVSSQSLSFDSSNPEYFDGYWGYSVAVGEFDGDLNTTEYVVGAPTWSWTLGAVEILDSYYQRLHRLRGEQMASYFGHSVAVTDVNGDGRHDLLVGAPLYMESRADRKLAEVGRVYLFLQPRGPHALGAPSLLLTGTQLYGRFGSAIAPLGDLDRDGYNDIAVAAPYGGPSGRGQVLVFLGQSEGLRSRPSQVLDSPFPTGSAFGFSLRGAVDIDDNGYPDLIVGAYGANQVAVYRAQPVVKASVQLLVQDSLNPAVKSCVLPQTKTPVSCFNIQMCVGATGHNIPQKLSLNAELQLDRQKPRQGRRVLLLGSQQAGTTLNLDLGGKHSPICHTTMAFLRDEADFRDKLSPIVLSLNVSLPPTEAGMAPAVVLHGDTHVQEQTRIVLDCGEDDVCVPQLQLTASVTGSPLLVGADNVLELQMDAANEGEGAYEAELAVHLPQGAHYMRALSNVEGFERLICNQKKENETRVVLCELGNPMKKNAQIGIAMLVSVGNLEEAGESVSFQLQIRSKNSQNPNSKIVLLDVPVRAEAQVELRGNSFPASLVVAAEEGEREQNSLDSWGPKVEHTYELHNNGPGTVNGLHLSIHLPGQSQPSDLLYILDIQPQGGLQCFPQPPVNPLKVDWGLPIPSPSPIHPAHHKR
T1 sequence (P08514 891-1039 limits assumed): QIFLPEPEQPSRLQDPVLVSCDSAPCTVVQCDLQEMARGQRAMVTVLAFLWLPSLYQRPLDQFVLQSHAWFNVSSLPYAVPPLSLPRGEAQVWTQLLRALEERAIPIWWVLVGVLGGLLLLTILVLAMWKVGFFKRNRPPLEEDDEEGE
In experiment [4] the test system is Cavia porcellus. The experiment can be described thus: Ex vivo platelet aggregation of compound was measured in guinea pig up to 5 hr after intraduodenal dose of 0.3 mg/kg. It is filed as functional.
Experiment [5] deals with T1, Integrin alpha-IIb/beta-3. The experiment is described as follows: Inhibition of fibrinogen binding to GPllb/IIIa receptor. It is filed as protein-complex assay.
The subject of experiment [6] is Cavia porcellus. The experiment is described as follows: Ex vivo platelet aggregation of compound was measured in guinea pig up to 5 hr after intraduodenal dose of 10 mg/kg. It is filed as functional.

Turning to `COc1ccc(CCC(=O)N[C@@H](CCCNC(=O)Cc2ccc(C(=N)N)cc2)CC(=O)O)cc1`, in the experiment on Cavia porcellus [1], the inhibition in vivo at 1 mg/kg stood at 10%. Further, at 3 mg/kg the inhibition in vivo in the experiment on Cavia porcellus [2] was 10%. In addition, the IC50 in the experiment filed under Homo sapiens came out at 0.031 µM; in experiment [3], 0.0011 µM.
For the molecule `CC(C)CC(=O)N[C@@H](CCCNC(=O)Cc1ccc(C(=N)N)cc1)CC(=O)O`, testing at 1 mg/kg with Cavia porcellus [1] gave an inhibition in vivo of 25%. Further, 3 mg/kg produced 75% inhibition in vivo in the experiment on Cavia porcellus [2]. The same molecule came in with an IC50 in the experiment filed under Homo sapiens of 0.1 µM.
In turn, `N=C(N)c1ccc(CC(=O)NCCC[C@@H](CC(=O)O)NC(=O)CCC23C[C@H]4C[C@@H](C2)C[C@@H](C3)C4)cc1` showed an inhibition in vivo at 3 mg/kg in the experiment on Cavia porcellus [2] of 10%. The IC50 amounted to 0.061 µM in the experiment listed under Homo sapiens and 0.00037 µM in experiment [3].
Regarding `N=C(N)c1ccc(CC(=O)NCCC[C@@H](CC(=O)O)NC(=O)CC23C[C@H]4C[C@@H](C2)C[C@@H](C3)C4)cc1`, the IC50 was determined as 0.067 µM in the experiment listed under Homo sapiens and 0.0022 µM in experiment [3].
`COc1ccc(CCC(=O)N[C@H](CCCCNC(=O)c2ccc(C(=N)N)cc2)CC(=O)O)cc1` yielded an inhibition in vivo at 0.3 mg/kg with Cavia porcellus [4] of 45%. Further, in the experiment with Cavia porcellus [1], the inhibition in vivo at 1 mg/kg came out at 90%. For the same molecule, the IC50 in the experiment listed under Homo sapiens was 0.018 µM; in experiment [3] it was 0.00036 µM.
`Cc1ccc(S(=O)(=O)N[C@@H](CCCNC(=O)OCc2ccccc2)C(=O)O)cc1` [ORNITHINE SULFONAMIDE] yielded an IC50 in experiment [5] of 20 µM.
As for `Cc1ccc(S(=O)(=O)N[C@@H](CCCNC(=O)Cc2ccc(C(=N)N)cc2)C(=O)O)cc1`, the IC50 worked out at 31 µM in the experiment filed under Homo sapiens and 48 µM in experiment [3].
Molecule `N=C(N)c1ccc(C(=O)NCCCC[C@H](CC(=O)O)NC(=O)Cc2cccc3ccccc23)cc1` yielded an inhibition in vivo at 1 mg/kg in the experiment on Cavia porcellus [1] of 40%. The IC50 came out at 0.018 µM in the experiment filed under Homo sapiens and 0.00036 µM in experiment [3].
As for `Cc1ccc(S(=O)(=O)N[C@@H](CCCNC(=O)Cc2ccc(C(=N)N)cc2)CC(=O)O)cc1`, the inhibition in vivo at 10 mg/kg in the experiment on Cavia porcellus [6] stood at 10%. This molecule also had an IC50 in the experiment listed under Homo sapiens of 0.64 µM.
With `CC(C)CNC(=O)[C@@H](CCCNC(=O)Cc1ccc(C(=N)N)cc1)CC(=O)O`, the IC50 in the experiment listed under Homo sapiens was 0.95 µM; in experiment [3] it was 0.0079 µM.
Consider `CC(C)CC(=O)N[C@H](CCCCNC(=O)c1ccc(C(=N)N)cc1)CC(=O)O`, for which the inhibition in vivo at 1 mg/kg in the experiment with Cavia porcellus [1] is 65%. In addition, the inhibition in vivo at 3 mg/kg in the experiment with Cavia porcellus [2] is 75%. Moreover, the IC50 in the experiment filed under Homo sapiens was 0.015 µM; in experiment [3], 0.00054 µM.
`COc1ccc(CCS(=O)(=O)N[C@H](CCCCNC(=O)c2ccc(C(=N)N)cc2)CC(=O)O)cc1`: the IC50 in the experiment filed under Homo sapiens came out at 0.079 µM; in experiment [3], 0.001 µM.

The term inhibition in vivo denotes how much of the control response was suppressed. A lower inhibition in vivo goes with little suppression. By IC50 is commonly meant the midpoint of a concentration-inhibition curve.
